These results are taken from patent US8877747B2, “Indenone derivative and pharmaceutical composition comprising same” (Korea Research Institute of Chemical Technology, priority 2009, dated 2014).

Structures can show the parent of a compound that is named as a salt.

For this test, the system named is MC3T3-E1 cells. The experiment in a line: ALP activity, differentiation of osteoblast cells. The test is classed as cell-based. To be noted: Mus musculus, MC3T3-E1, 144 h; MC3T3E1 cells treated with 10 μM compound and OF; relates activity to OF-only group (100%); higher = more efficacious. The protocol:
To examine the effects of the inventive indenone derivatives on the differentiation and activation of osteoblast cells, the activity and expression of alkaline phosphatase (ALP), a marker for the differentiation of osteoblast cells, and the bone nodule formation using a mouse derived osteoblast-like cells, MC3T3-E1 (ATCC, Japan) or a primary mouse calvaria derived preosteoblastic cells were observed.
MC3T3-E 1 cells were seeded in a medium containing osteogenic factors (OF) such as ascorbic acids and β-glycerophosphates (b-GP), and each compound of Examples was added thereto at a concentration of 0.1, 1 and 10 μM. The cells were incubated for 6 days (MC3T3-E1 cells) or 7 days (primary mouse calvaria derived preosteoblastic cells) in a 37° C. CO2 incubator. Then, the culture medium was replaced with a fresh medium together with the test compound every two or three days. On the last day, the medium was centrifuged to remove the supernatant, and the cells were washed with PBS. The washed cells were subjected to a 3-cycle freege-thaw treatment using a −70° C. deep freezer to allow enzymes elute in a lysis buffer. The lysed protein was quantified, followed by measurement of ALP activity using 4-nitrophenylphosphate.
Further, a group treated only with DMSO or OF was tested for ALP activities for comparison.
For `CS(=O)(=O)N1CCN(CCOc2ccc3c(c2)C(=O)C(c2cccnc2)=C3c2cc(F)cc(F)c2)CC1` [Example 59, 3-(3,5-difluorophenyl)-6-(2-(4-(methylsulfonyl)piperazin-1-yl)ethoxy)-2-(pyridin-3-yl)-1H-inden-1-one hydrochloride salt], the activity at 10 µM amounted to 254%.
Next, `CN(C)CCCOc1ccc2c(c1)C(=O)C(c1cccnc1)=C2c1cc(F)cc(F)c1` [Example 60, 3-(3,5-difluorophenyl)-6-(3-(dimethylamino)propoxy)-2-(pyridin-3-yl)-1H-inden-1-one hydrochloride salt]: 19%; `O=C1C(c2ccc(-c3ccccc3)cc2)=C(c2ccccc2)c2ccc(OCCN3CCOCC3)cc21` [Example 10, 6-(2-morpholinoethoxy)-2-(4-(phenyl)phenyl)-3-phenyl-1H-inden-1-one]: 172%.
Regarding `COc1ccc(C2=C(c3cc(F)cc(F)c3)c3ccc(OCCCN4CCN(S(C)(=O)=O)CC4)cc3C2=O)cn1` [Example 107, 3-(3,5-difluorophenyl)-2-(6-methoxypyridin-3-yl)-6-{3-[4-(methylsulfonyl)piperazin-1-yl]propoxy}-1H-inden-1-one hydrochloride salt], the activity at 10 µM is 286%.
Next, `C[n+]1cccc(C2=C(c3ccccc3)c3ccc(OCC[N+]4(C)CCOCC4)cc3C2=O)c1` [Example 40, 4-methyl-4-(2-{[2-(1-methylpyridin-1-ium-3-yl)-1-oxo-3-phenyl-1H-inden-6-yl]oxy}ethyl)morpholin-4-ium diiodide]: 291%.
The result for `O=C1C(c2cncnc2)=C(c2ccc(C(F)(F)F)cc2)c2ccc(OCCN3CCOCC3)cc21` [Example 35, 6-(2-morpholinoethoxy)-3-(4-(trifluoromethyl)phenyl)-2-(pyrimidin-5-yl)-1H-inden-1-one] reads 79%; that for `COc1ccc(C2=C(c3ccccc3)c3ccc(OCCN4CCOCC4)cc3C2=O)cc1` [Example 22, 6-(2-morpholinoethoxy)-2-(4-methoxyphenyl)-3-phenyl-1H-inden-1-one], 169%; that for `Cc1ccc(C2=C(c3cc(F)cc(F)c3)c3ccc(OCCC4CCN(S(C)(=O)=O)CC4)cc3C2=O)cc1` [Example 103, 3-(3,5-difluorophenyl)-6-{2-[1-(methylsulfonyl)piperidin-4-yl]ethoxy}-2-p-tolyl-1H-inden-1-one], 209%.
Next, `O=C1C(c2cncnc2)=C(c2cc(F)cc(F)c2)c2ccc(OCCN3CCOCC3)cc21` [Example 39, 6-(2-morpholinoethoxy)-3-(3,5-difluorophenyl)-2-(pyrimidin-5-yl)-1H-inden-1-one]: 92%; `Cc1ccc(C2=C(c3ccc(F)cc3F)c3ccc(OCCN4CCN(S(C)(=O)=O)CC4)cc3C2=O)cc1` [Example 116, 3-(2,4-difluorophenyl)-6-{2-[4-(methylsulfonyl)piperazin-1-yl]ethoxy}-2-p-tolyl-1H-inden-1-one]: 71%.
In the case of `O=C1C(c2ccc(F)c(F)c2)=C(c2ccc(F)cc2)c2ccc(OCCN3CCOCC3)cc21` [Example 26, 6-(2-morpholinoethoxy)-2-(3,4-difluorophenyl)-3-(4-fluorophenyl)-1H-inden-1-one], the activity at 10 µM was determined as 79%.
As for `COc1ccc(C2=C(c3cc(F)cc(F)c3)c3ccc(OCCN4CCS(=O)(=O)CC4)cc3C2=O)cc1F` [Example 95, 2-(3-fluoro-4-methoxyphenyl)-3-(3,5-difluorophenyl)-6-[2-(1,1-dioxothiomorpholin-4-yl)ethoxy]-1H-inden-1-one hydrochloride salt], the activity at 10 µM was 203%.
The result for `Cc1ccc(C2=C(c3cc(F)cc(F)c3)c3ccc(OCCN4CCN(S(C)(=O)=O)CC4)cc3C2=O)cc1` [Example 98, 3-(3,5-difluorophenyl)-6-{2-[4-(methylsulfonyl)piperazin-1-yl]ethoxy}-2-p-tolyl-1H-inden-1-one hydrochloride salt] reads 146%; that for `COc1ccc(C2=C(c3ccccc3)c3ccc(OCCN4CCOCC4)cc3C2=O)cc1F` [Example 2, 6-(2-morpholinoethoxy)-2-(3-fluoro-4-methoxyphenyl)-3-phenyl-1H-inden-1-one], 221%; that for `O=C1C(c2cccnc2)=C(c2cc(F)cc(F)c2)c2ccc(OCCC3CCOCC3)cc21` [Example 78, 3-(3,5-difluorophenyl)-2-(pyridin-3-yl)-6-(2-(tetrahydro-2H-pyran-4-yl)ethoxy)-1H-inden-1-one], 187%.
The result for `CS(=O)(=O)N1CCN(CCOc2ccc3c(c2)C(=O)C(c2cncnc2)=C3c2ccc(C(F)(F)F)cc2)CC1` [Example 49, 6-(2-(4-(methylsulfonyl)piperazin-1-yl)ethoxy)-2-(pyrimidin-5-yl)-3-(4-(trifluoromethyl)phenyl)-1H-inden-1-one] reads 37%; that for `O=C1C(c2ccc(Cl)cc2)=C(c2ccccc2)c2ccc(OCCN3CCOCC3)cc21` [Example 23, 6-(2-morpholinoethoxy)-2-(4-chlorophenyl)-3-phenyl-1H-inden-1-one], 162%.
The result for `CN(C)CCCOc1ccc2c(c1)C(=O)C(c1cccnc1)=C2c1ccccc1` [Example 57, 6-(3-(dimethylamino)propoxy)-3-phenyl-2-(pyridin-3-yl)-1H-inden-1-one hydrochloride salt] reads 62%; that for `Cc1ccc(C2=C(c3ccccc3)c3ccc(OCCN4CCOCC4)cc3C2=O)cc1F` [Example 19, 6-(2-morpholinoethoxy)-2-(3-fluoro-4-methylphenyl)-3-phenyl-1H-inden-1-one], 220%; that for `COc1ccc(C2=C(c3ccc(F)cc3F)c3ccc(OCCN4CCOCC4)cc3C2=O)cn1` [Example 125, 3-(2,4-difluorophenyl)-2-(6-methoxypyridin-3-yl)-6-[2-(morpholin-4-yl)ethoxy]-1H-inden-1-one], 63%.
For `O=C1C(c2ccc(Cl)s2)=C(c2ccccc2)c2ccc(OCCN3CCOCC3)cc21` [Example 86, 2-(5-chlorothiophen-2-yl)-6-(2-morpholinoethoxy)-3-phenyl-1H-inden-1-one], the activity at 10 µM was 77%.
The result for `O=C1C(c2cnc3ccccc3c2)=C(c2ccc(F)cc2F)c2ccc(OCCN3CCOCC3)cc21` [Example 127, 3-(2,4-difluorophenyl)-6-[2-(morpholin-4-yl)ethoxy]-2-(quinolin-3-yl)-1H-inden-1-one] reads 55%; that for `O=C1C(c2cc3ccccc3o2)=C(c2ccccc2)c2ccc(OCCN3CCOCC3)cc21` [Example 91, 6-(2-morpholinoethoxy)-2-(benzofuran-2-yl)-3-phenyl-1H-inden-1-one], 67%.
Next, `O=C1C(c2cccnc2)=C(c2cc(F)cc(F)c2)c2ccc(OCCN3CCCCC3)cc21` [Example 63, 3-(3,5-difluorophenyl)-6-(2-(piperidin-1-yl)ethoxy)-2-(pyridin-3-yl)-1H-inden-1-one hydrochloride salt]: 53%; `O=C1C(c2ccc[n+]([O-])c2)=C(c2ccccc2)c2ccc(OCC[N+]3([O-])CCOCC3)cc21` [Example 43, 4-oxido-4-(2-{[2-(1-oxidopyridin-1-ium-3-yl)-1-oxo-3-phenyl-1H-inden-6-yl]oxy}ethyl)morpholin-4-ium]: 125%; `O=C1C(c2ccc3c(c2)OCO3)=C(c2ccccc2)c2ccc(OCCN3CCOCC3)cc21` [Example 85, 2-(benzo[1,3]dioxol-5-yl)-6-(2-morpholinoethoxy)-3-phenyl-1H-inden-1-one]: 77%.
Consider `COc1ccc(C2=C(c3cc(F)cc(F)c3)c3ccc(OCCC4CCN(S(C)(=O)=O)CC4)cc3C2=O)cc1F` [Example 102, 3-(3,5-difluorophenyl)-2-(3-fluoro-4-methoxyphenyl)-6-{2-[1-(methylsulfonyl)piperidin-4-yl]ethoxy}-1H-inden-1-one], for which the activity at 10 µM came out at 220%.
The result for `N#Cc1cccc(C2=C(c3ccccc3)c3ccc(OCCN4CCOCC4)cc3C2=O)c1` [Example 5, 3-(6-(2-morpholinoethoxy)-1-oxo-3-phenyl-1H-inden-2-yl)benzonitrile] reads 44%; that for `O=C1C(c2cncnc2)=C(c2ccc(F)cc2)c2ccc(OCCN3CCOCC3)cc21` [Example 25, 6-(2-morpholinoethoxy)-3-(4-fluorophenyl)-2-(pyrimidin-5-yl)-1H-inden-1-one], 105%; that for `O=C1C(c2ccc(F)c(F)c2)=C(c2ccc(Cl)cc2)c2ccc(OCCN3CCOCC3)cc21` [Example 29, 6-(2-morpholinoethoxy)-3-(4-chlorophenyl)-2-(3,4-difluorophenyl)-1H-inden-1-one], 84%.
The result for `O=C1C(c2cccnc2)=C(c2ccc(Cl)cc2)c2ccc(OCCN3CCOCC3)cc21` [Example 28, 6-(2-morpholinoethoxy)-3-(4-chlorophenyl)-2-(pyridin-3-yl)-1H-inden-1-one] reads 134%; that for `CS(=O)(=O)N1CCN(CCOc2ccc3c(c2)C(=O)C(c2cncnc2)=C3c2ccc(Cl)cc2)CC1` [Example 54, 3-(4-chlorophenyl)-6-(2-(4-(methylsulfonyl)piperazin-1-yl)ethoxy)-2-(pyrimidin-5-yl)-1H-inden-1-one hydrochloride salt], 62%.
